Assay results published in patent EP1306084A1, “Compositions for the control of parasitic infestations in fish” (Alpharma AS, priority 1998, dated 1999).

How the values were obtained:
[1] = Field trial: weight and length of recaptured tagged fish (Example 3); format: in vivo, wild sea trout (Salmo trutta); conditions: treated fish caught June 20 to August 7
Procedure: About 2,000 wild sea trout (Salmo trutta) were divided into two groups and marked with Carlin tags in two different colours (yellow or red) so that individuals of the groups could easily be distinguished from each other when observed in the water. The group with yellow Carlin tags were given feed containing hexaflumuron. The dose was about 3 mg of hexaflumuron per fish per day for six days. The feeding was done the last week before they were transferred to the sea in the beginning of May. The control group had red Carlin tags and was fed ordinary fish feed until sea transfer. Both groups of fish were transferred to the sea 200 metres from the river mouth of the Bondhus River in Hordaland in Norway. From sea transfer (May 8) until August 7, neighbouring rivers and estuaries round these rivers were examined every week, using fishing by application of high voltage and net fishing.
The following average lengths and weights were recorded for the fish that were caught during the period: • Control fish: Average weight 50.4 ± 48.8 grams. Average length 19.7 ± 13.3 cm. • Treated fish: Average weight 87.1 ± 69.6 grams. Average length 35.9 ± 19.1 cm.

[2] = Chemical analysis of muscle/skin tissue after oral treatment (Example 6); format: in vivo, Atlantic salmon (Salmo salar); conditions: atlantic salmon, 5.6 mg/kg, five fish, read-out: average concentration of hexaflumuron in muscle/skin tissue
Procedure: Two days after oral treatment had been completed and at timepoint 3 (65 days after completed medication), muscle/skin tissue from five fish in group 1 was chemically analysed to check the concentration of hexaflumuron. The average concentration of hexaflumuron two days after completed medication was 4.4 µg/g tissue. 65 days after, the average concentration level was 1.2 µg/g tissue.

[3] = tested on: sea lice; test: Injection of 9 active substances, protective effect against sea lice (Example 8); format: in vivo, salmon smolt; conditions: for lice on average: T3, 70 days after injection, about 50 mg/kg, control group 5.6
Procedure: The treatment dosage was 9 mg hexaflumuron per kg fish per day for 10 days. This is indicated by "Groups/Timepoints" in the figure; • Figure 2 relates to the trial in Example 2 that was carried out on Atlantic salmon (Salmo salar). […] The treatment dosage varied between 3 - 9 mg hexaflumuron and 9- 12 mg fluazuron per kg fish per day for 7 days. This is indicated by "Groups/Timepoints" in the diagram. […] The treated groups are compared to an untreated control group. The treatment dosage was 4 mg hexaflumuron per kg fish per day for 5 days. This is indicated by "Groups/Timepoints" in the figure. Cage 2 = controls, Cage 4-6 = treated groups, 16.6.97 = time point for sea transfer and 5.8.97= controls treated by bathing with deltamethrin; • Figure 4 relates to the trial described in Example 5, which was carried out on sea trout (Salmo trutta). […] The treated groups are compared with an untreated control group. The dosage for oral treatment was 4 mg hexaflumuron per kilo fish per day for 5 days, and 5 ppm hexaflumuron as a 30 minute bath treatment. This is indicated by "Groups/Timepoints" in the figure. Cage 1.4 = Controls, cage 1.3 = Oral treatment, cage 1.2 = Bath treatment. […] The treated groups are compared with an untreated control group, and one group that has been treated orally with teflubenzuron (10 mg/kg of teflubenzuron per kg fish per day for 7 days). The dosage for oral treatment was 5.6 mg hexaflumuron per kg fish per day for 7 days, and 5 ppm hexaflumuron as a 30 minute bath treatment. […] End of treatment: 22.10.97, Sea transfer: 23.10.97. T1 = 3 weeks post end of treatment, T2 = 5 weeks post end of treatment, T3 = 9 weeks post end of treatment, T4 = 12 weeks post end of treatment; • Figure 6 relates to the trial in Example 6 at time points 4-6, with the same trial parameters as for Figure 5. T5 = 15 weeks post end of treatment, T6 = 17 weeks post end of treatment. Cage 3 and 4 were treated by bath with deltamethrin after sea lice counting at T4 (12.01.98); • Figure 7 relates to the trial described in Example 7 where salmon were injected on 17.12.97 with two formulations (groups L and R, respectively) of hexaflumuron and a vaccine formulation without hexaflumuron (control). […] The vaccinated fish was transferred to sea water on 09.01.98; • Figure 8 summarises the trial of Example 8 where salmon smolts were injected with 9 different active substances on 08.07.98. Only results for Moxidectin (Mox.), Lufenuron (Luf.) and hexaflumuron in Apoject 1-Fural (Hex.Apo) and in animal oil (Hex.oil) are shown, and • Figure 9 summarises the trial described in Example 10 where salmon were injected on 03.12.97 with 3 different formulations of hexaflumuron (Hexa 1, Hexa 2 and Hexa 3). The fish were transferred to sea water at T0.
In this trial 9 different active substances were tested for protective effect against sea lice. 1,200 salmon smolt were, prior the start of the trial, vaccinated with a commercial vaccine, ALPHA JECT 5100.
One week after sea water transfer the salmon was divided into 12 groups and injected with different formulations of the 9 different active substances. In parallel with the 12 groups, a 13th group comprising 50 fish of the same origin and size was injected with a saline (PBS) solution without active substance. This group served as negative control/reference group in respect of sea lice infestations. The groups were marked by fin cutting and distributed randomly into 3 cages.
The active substances that were used as injection were hexaflumuron, buprofezin, diflubenzuron, fluazuron, lufenuron, ivermectin, doramectin, moxidectin and milbemycin oxime, respectively. All the fish were injected with 0.2 ml of the various injection formulations. Hexaflumuron, buprofezin, fluazuron, lufenuron and diflubenzuron were administered at a dosage of about 50 mg/kg whereas ivermectin, doramectin and moxidectin were administered at a dosage of 0.2 mg/kg (recommended dosage for mammals). […]

[4] = tested on: Anilocra physodes; test: Oral hexaflumuron against infestation with a parasitic isopod (Example 9); format: in vivo, Sea bass (Dicentrarchus labrax)
Procedure: In this trial, hexaflumuron was administered orally in order to test the effect against infestations with the parasitic isopod Anilocra physodes in Sea bass (Dicentrarchus labrax).
150,000 Sea bass (Dicentrarchus labrax) having an average weight of 2 grams were transferred from a hatchery facility and distributed into 5 cages each containing 30,000 fish. The trial was carried out in a food fish facility in the Mediterranean where the sea water temperature varied in the range of 15.0-25.0°C throughout the trial period.
Fish in four cages were fed medicated feed at an amount corresponding to 0.5% of the total biomass per day for 6 days, corresponding to 10 mg hexaflumuron/kg fish per day. One week after the medication and subsequently every three weeks the number of parasites on the fish was monitored.

SMILES: O=C(NC(=O)c1c(F)cccc1F)Nc1cc(Cl)c(OC(F)(F)C(F)F)c(Cl)c1 [hexaflumuron]
- Average length ([1]; control fish 19.7 ± 13.3): 35.9 ± 19.1 cm
- Average weight ([1]; control fish 50.4 ± 48.8): 87.1 ± 69.6 grams
- concentration at 1560 h ([2]; 65 days after completed oral medication): 1200 ng/g
- concentration at 48 h ([2]; two days after completed oral medication (5.6 mg per kg, 7 days)): 4400 ng/g
- protection against sea lice ([3]; T2, 40 days after injection, hexaflumuron, lufenuron about 50 mg/kg, moxidectin 0.2 mg/kg): showed protection
- lice on average ([3]; formulated in Apoject 1-Fural): 0
- lice on average ([3]; formulated in animal oil): 0.8
- protection against sea lice ([3]; T3, hexaflumuron in an aqueous suspension (PBS)): no protection
- number of sea lice versus control group ([3]; T8 (218 days after injection), hexaflumuron in Apoject 1-Fural, animal oil): significantly lower
- significant protection against sea lice until and including T10, time after injection ([3]; hexaflumuron formulated in Apoject 1-Fural or in animal oil): 9 months
- prophylactic effect against sea lice ([3]; two groups of fish injected with hexaflumuron): ≤ 10 months
- parasites found in the treated groups ([4]; one week after the medication period (10 mg/kg fish per day, 6 days), control 0.1 louse): no parasites were found
- period of effect against Anilocra physodes after medication ([4]; oral 10 mg/kg fish per day for 6 days): about 3 weeks
- average parasites in the treated groups ([4]; three weeks after the medication period, control 0.4 louse): 0.15 louse
